# Reference: US8030354B2, “Substituted biphenyl GPR40 modulators” (Amgen Inc., priority 2007, dated 2011)
# Molecular target: GPR40 (Homo sapiens, UniProt O14842)
# Assay: Cell-based aequorin assay (CHO cells stably expressing GPR40 and aequorin)
# Design: expressed in transfected cells; host or cells: CHO cells stably transfected with GPR40 and aequorin
# Conditions: activation of human GPR40, CHO cells, 0.01% HSA
# Method in brief: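 CHO cells stably co-expressing GPR40 and aequorin, loaded with coelenterazine (1 ug/mL, 2 h, room temperature) in H/HBSS with 20 mM Hepes and 0.01% fatty acid-free HSA. Serially diluted compounds added; luminescence recorded over 20 s. EC50 from dose-response of maximum relative light units.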
# Sequence of GPR40 (O14842 whole entry): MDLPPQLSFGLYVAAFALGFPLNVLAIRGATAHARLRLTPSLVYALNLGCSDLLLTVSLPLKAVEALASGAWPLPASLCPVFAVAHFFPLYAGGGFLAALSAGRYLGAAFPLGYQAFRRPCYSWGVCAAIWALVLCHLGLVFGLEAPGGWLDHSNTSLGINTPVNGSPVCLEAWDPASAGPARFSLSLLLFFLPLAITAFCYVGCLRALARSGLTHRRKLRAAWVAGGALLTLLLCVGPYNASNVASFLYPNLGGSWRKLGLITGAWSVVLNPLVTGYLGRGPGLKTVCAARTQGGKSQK
row,Structure (SMILES),EC50 [µM]
1,"CC1(c2cccc(-c3ccc(COc4cccc(C(CC(=O)O)C5CC5)c4)cc3C3CCCC3(C)C)c2)OCCO1 (single isomer, unassigned) [Example 66.72, (S)-3-(3-((S)-3-((S)-2,2-Dimethylcyclopentyl)-4-(3-(2-methyl-1,3-dioxolan-2-yl)phenyl)benzyloxy)phenyl)-3-cyclopropylpropanoic acid or stereoisomer thereof]",1 to 10
2,"COc1ccc(F)c(-c2ccc(COc3cccc(C(CC(=O)O)C4CC4)c3)cc2CN2CCCCCC2)c1 (single isomer, unassigned) [Example 66.73, (3S)-3-(3-(((2-(1-Azepanylmethyl)-2′-fluoro-5′-(methyloxy)-1,1′-biphenyl-4-yl)methyl)oxy)phenyl)-3-cyclopropylpropanoic acid or (3R)-3-(3-(((2-(1-azepanylmethyl)-2′-fluoro-5′-(methyloxy)-1,1′-biphenyl-4-yl)methyl)oxy)phenyl)-3-cyclopropylpropanoic acid]",1 to 10
3,"CC(=O)c1cccc(-c2ccc(COc3cccc([C@@H](CC(=O)O)C4CC4)c3)cc2[C@H]2CCCC2(C)C)c1 (single isomer, unassigned) [Example 66.74, (S)-3-(3-((S)-3-((S)-2,2-Dimethylcyclopentyl)-4-(3-acetylphenyl)benzyloxy)phenyl)-3-cyclopropylpropanoic acid or stereoisomer thereof]",1 to 10
4,"COc1ccc(F)c(-c2ccc(COc3cccc(C(CC(=O)O)C4CC4)c3)cc2CN2CCCC[C@@H]2C)c1 (single isomer, unassigned) [Example 66.75, (3S)-3-Cyclopropyl-3-(3-(((2′-fluoro-5′-(methyloxy)-2-(((2S)-2-methyl-1-piperidinyl)methyl)-1,1′-biphenyl-4-yl)methyl)oxy)phenyl)propanoic acid or (3R)-3-cyclopropyl-3-(3-(((2′-fluoro-5′-(methyloxy)-2-(((2S)-2-methyl-1-piperidinyl)methyl)-1,1′-biphenyl-4-yl)methyl)oxy)phenyl)propanoic acid]",1 to 10
5,"CC(C)(O)c1cccc(-c2ccc(COc3cccc([C@@H](CC(=O)O)C4CC4)c3)cc2[C@H]2CCCC2(C)C)c1 (single isomer, unassigned) [Example 66.76, (S)-3-(3-((S)-3-((S)-2,2-dimethylcyclopentyl)-4-(3-(2-hydroxypropan-2-yl)phenyl)benzyloxy)phenyl)-3-cyclopropylpropanoic acid or stereoisomer thereof]",1 to 10
6,"CCCC(CC(=O)O)c1cccc(OCc2ccc(-c3cc(OC)ccc3F)c(/C=C/C3CC3)c2)c1 (single isomer, unassigned) [Example 67.9, (3R)-3-(3-(((2-((E)-2-Cyclopropylethenyl)-2′-fluoro-5′-(methyloxy)-1,1′-biphenyl-4-yl)methyl)oxy)phenyl)hexanoic acid or (3S)-3-(3-(((2-((E)-2-cyclopropylethenyl)-2′-fluoro-5′-(methyloxy)-1,1′-biphenyl-4-yl)methyl)oxy)phenyl)hexanoic acid]",1 to 10
7,"CCCCCCOc1cc(COc2cccc([C@H](CCC)CC(=O)O)c2)ccc1-c1cc(OC)ccc1F (single isomer, unassigned) [Example 67.15, (3R)-3-(3-(((2′-Fluoro-2-(hexyloxy)-5′-(methyloxy)-1,1′-biphenyl-4-yl)methyl)oxy)phenyl)hexanoic acid or (3S)-3-(3-(((2′-fluoro-2-(hexyloxy)-5′-(methyloxy)-1,1′-biphenyl-4-yl)methyl)oxy)phenyl)hexanoic acid]",0.1 to 1
8,"CCCC(CC(=O)O)c1cccc(OCc2ccc(-c3cc(OC)ccc3F)c(OCCCC(C)C)c2)c1 (single isomer, unassigned) [Example 67.16, (3R)-3-(3-(((2′-Fluoro-5′-(methyloxy)-2-((4-methylpentyl)oxy)-1,1′-biphenyl-4-yl)methyl)oxy)phenyl)hexanoic acid or (3S)-3-(3-(((2′-fluoro-5′-(methyloxy)-2-((4-methylpentyl)oxy)-1,1′-biphenyl-4-yl)methyl)oxy)phenyl)hexanoic acid]",0.1 to 1
9,"CCCC(CC(=O)O)c1cccc(OCc2ccc(-c3cc(OC)ccc3F)c(OCC3CCCCC3)c2)c1 (single isomer, unassigned) [Example 67.17, (3R)-3-(3-(((2-((Cyclohexylmethyl)oxy)-2′-fluoro-5′-(methyloxy)-1,1′-biphenyl-4-yl)methyl)oxy)phenyl)hexanoic acid or (3S)-3-(3-(((2-((cyclohexylmethyl)oxy)-2′-fluoro-5′-(methyloxy)-1,1′-biphenyl-4-yl)methyl)oxy)phenyl)hexanoic acid]",0.1 to 1
10,"CCC[C@H](CC(=O)O)c1cccc(OCc2ccc(-c3ccccc3F)c(C(C)(C)C)c2)c1 (single isomer, unassigned) [Example 67.18, (3R)-3-(3-(((2-(1,1-Dimethylethyl)-2′-fluoro-1,1′-biphenyl-4-yl)methyl)oxy)phenyl)hexanoic acid or (3S)-3-(3-(((2-(1,1-dimethylethyl)-2′-fluoro-1,1′-biphenyl-4-yl)methyl)oxy)phenyl)hexanoic acid]",1 to 10
11,"CCC[C@H](CC(=O)O)c1cccc(OCc2ccc(-c3ccc(OC)nc3)c(C(C)(C)C)c2)c1 (single isomer, unassigned) [Example 67.19, (3R)-3-(3-(((3-(1,1-Dimethylethyl)-4-(6-(methyloxy)-3-pyridinyl)phenyl)methyl)oxy)phenyl)hexanoic acid or (3S)-3-(3-(((3-(1,1-dimethylethyl)-4-(6-(methyloxy)-3-pyridinyl)phenyl)methyl)oxy)phenyl)hexanoic acid]",1 to 10
12,"CCCC(CC(=O)O)c1cccc(OCc2ccc(-c3cccc(OC)n3)cc2)c1 (single isomer, unassigned) [Example 67.22, (3R)-3-(3-(((4-(6-(Methyloxy)-2-pyridinyl)phenyl)methyl)oxy)phenyl)hexanoic acid or (3S)-3-(3-(((4-(6-(methyloxy)-2-pyridinyl)phenyl)methyl)oxy)phenyl)hexanoic acid]",1 to 10

# Continued, values first:
row,EC50 [µM],Structure (SMILES)
1,0.1 to 1,"CCCCCOc1cc(COc2cccc(C(CCC)CC(=O)O)c2)ccc1-c1cc(OC)ccc1F (single isomer, unassigned) [Example 67.1, (3R)-3-(3-(((2′-Fluoro-5′-(methyloxy)-2-(pentyloxy)-1,1′-biphenyl-4-yl)methyl)oxy)phenyl)hexanoic acid or (3S)-3-(3-(((2∝-fluoro-5′-(methyloxy)-2-(pentyloxy)-1,1′-biphenyl-4-yl)methyl)oxy)phenyl)hexanoic acid]"
2,0.1 to 1,"CCCC(CC(=O)O)c1cccc(OCc2ccc(-c3cc(OC)ccc3F)c(C(C)(C)C)c2F)c1 (single isomer, unassigned) [Example 67.3, (3R)-3-(3-(((2-(1,1-Dimethylethyl)-2′,3-difluoro-5′-(methyloxy)-1,1′-biphenyl-4-yl)methyl)oxy)phenyl)hexanoic acid or (3S)-3-(3-(((2-(1,1-dimethylethyl)-2′,3-difluoro-5′-(methyloxy)-1,1′-biphenyl-4-yl)methyl)oxy)phenyl)hexanoic acid]"
3,0.1 to 1,"CCCC(CC(=O)O)c1cccc(OCc2ccc(-c3cc(OC)ccc3F)c(/C=C/C(C)(C)C)c2)c1 (single isomer, unassigned) [Example 67.4, (3R)-3-(3-(((2-((1E)-3,3-Dimethyl-1-butenyl)-2′-fluoro-5′-(methyloxy)-1,1′-biphenyl-4-yl)methyl)oxy)phenyl)hexanoic acid or (3S)-3-(3-(((2-((1E)-3,3-dimethyl-1-butenyl)-2′-fluoro-5′-(methyloxy)-1,1′-biphenyl-4-yl)methyl)oxy)phenyl)hexanoic acid]"
4,0.1 to 1,"CCCC(CC(=O)O)c1cccc(OCc2ccc(-c3cc(OC)ccc3F)c(C3=CCC(C)(C)CC3)c2)c1 (single isomer, unassigned) [Example 67.5, (3R)-3-(3-(((2-(4,4-Dimethyl-1-cyclohexen-1-yl)-2′-fluoro-5′-(methyloxy)-1,1′-biphenyl-4-yl)methyl)oxy)phenyl)hexanoic acid or (3S)-3-(3-(((2-(4,4-dimethyl-1-cyclohexen-1-yl)-2′-fluoro-5′-(methyloxy)-1,1′-biphenyl-4-yl)methyl)oxy)phenyl)hexanoic acid]"
5,0.1 to 1,"CCCC(CC(=O)O)c1cccc(OCc2ccc(-c3cc(OC)ccc3F)c(C3CCCC3)c2)c1 (single isomer, unassigned) [Example 67.10, (3R)-3-(3-(((2-Cyclopentyl-2′-fluoro-5′-(methyloxy)-1,1′-biphenyl-4-yl)methyl)oxy)p acid or (3S)-3-(3-(((2-cyclopentyl-2′-fluoro-5′-(methyloxy)-1,1′-biphenyl-4-yl)methyl)oxy)phenyl)hexanoic acid]"
6,0.1 to 1,"CCCCOc1cc(COc2cccc(C(CCC)CC(=O)O)c2)ccc1-c1cccc(OC)c1 (single isomer, unassigned) [Example 67.13, (3R)-3-(3-(((2-(Butyloxy)-3′-(methyloxy)-1,1′-biphenyl-4-yl)methyl)oxy)phenyl)hexanoic acid or (3S)-3-(3-(((2-(butyloxy)-3′-(methyloxy)-1,1′-biphenyl-4-yl)methyl)oxy)phenyl)hexanoic acid]"
7,0.1 to 1,"CCC[C@H](CC(=O)O)c1cccc(OCc2ccc(-c3cc(OC)ccc3F)c(OC3CCCCO3)c2)c1 (single isomer, unassigned) [Example 67.14, (3R)-3-(3-(((2′-Fluoro-5′-(methyloxy)-2-(tetrahydro-2H-pyran-2-yloxy)-1,1′-biphenyl-4-yl)methyl)oxy)phenyl)hexanoic acid or (3S)-3-(3-(((2′-fluoro-5′-(methyloxy)-2-(tetrahydro-2H-pyran-2-yloxy)-1,1′-biphenyl-4-yl)methyl)oxy)phenyl)hexanoic acid]"
